Results from patent US8946215B2, “Hydroxy-substituted imidazo[1,2-a]pyridinecarboxamides and their use” (Bayer Pharma Aktiengesellschaft, priority 2012, dated 2015).
Structures can show the parent of a compound that is named as a salt.

target: T1, recombinant guanylate cyclase reporter cell line (Rattus norvegicus, UniProt P19686+P20595); test: Action on recombinant guanylate cyclase reporter cell line; assay type: cell-based; settings: in some cases mean values obtained from individual determinations
T1 construct: expressed in transfected cells
T1 sequence (P20595 1-619): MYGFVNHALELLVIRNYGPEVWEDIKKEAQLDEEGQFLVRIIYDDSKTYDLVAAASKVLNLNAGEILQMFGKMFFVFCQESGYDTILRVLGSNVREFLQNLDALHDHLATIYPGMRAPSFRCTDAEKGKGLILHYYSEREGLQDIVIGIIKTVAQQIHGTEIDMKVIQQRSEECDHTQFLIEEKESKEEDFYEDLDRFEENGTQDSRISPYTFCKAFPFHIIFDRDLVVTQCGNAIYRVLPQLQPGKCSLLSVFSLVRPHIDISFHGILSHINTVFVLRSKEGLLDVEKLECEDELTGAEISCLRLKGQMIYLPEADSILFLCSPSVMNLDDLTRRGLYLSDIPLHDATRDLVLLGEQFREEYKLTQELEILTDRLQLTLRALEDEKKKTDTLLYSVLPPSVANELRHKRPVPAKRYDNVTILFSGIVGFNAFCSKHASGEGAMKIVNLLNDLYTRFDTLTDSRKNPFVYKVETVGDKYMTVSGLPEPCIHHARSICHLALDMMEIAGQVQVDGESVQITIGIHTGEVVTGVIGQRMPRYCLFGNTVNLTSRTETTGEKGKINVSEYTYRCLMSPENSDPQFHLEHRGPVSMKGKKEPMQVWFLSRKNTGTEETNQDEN
T1 sequence (P19686 1-690): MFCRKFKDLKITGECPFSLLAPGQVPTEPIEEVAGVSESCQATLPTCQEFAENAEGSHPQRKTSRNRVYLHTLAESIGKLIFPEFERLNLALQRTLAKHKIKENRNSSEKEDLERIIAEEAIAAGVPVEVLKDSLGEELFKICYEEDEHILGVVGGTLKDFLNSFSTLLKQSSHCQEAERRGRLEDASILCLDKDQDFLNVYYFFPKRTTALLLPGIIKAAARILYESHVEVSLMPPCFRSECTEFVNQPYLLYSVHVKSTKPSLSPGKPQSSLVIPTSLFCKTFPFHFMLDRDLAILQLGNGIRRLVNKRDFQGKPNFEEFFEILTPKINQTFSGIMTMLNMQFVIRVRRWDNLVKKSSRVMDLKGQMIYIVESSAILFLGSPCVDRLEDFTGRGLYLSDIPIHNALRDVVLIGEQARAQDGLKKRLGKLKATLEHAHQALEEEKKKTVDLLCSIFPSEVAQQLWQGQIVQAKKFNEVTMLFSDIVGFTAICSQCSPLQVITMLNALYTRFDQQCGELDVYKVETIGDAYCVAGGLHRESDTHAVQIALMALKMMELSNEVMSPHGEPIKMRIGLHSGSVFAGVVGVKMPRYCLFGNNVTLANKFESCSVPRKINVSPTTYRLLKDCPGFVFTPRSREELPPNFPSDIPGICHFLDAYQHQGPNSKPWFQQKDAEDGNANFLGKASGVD
Procedure: B-2. Action on Recombinant Guanylate Cyclase Reporter Cell Line
The cellular action of the compounds according to the invention is determined on a recombinant guanylate cyclase reporter cell line, as described in F. Wunder et al., Anal. Biochem. 339, 104-112 (2005).
Representative values (MEC=minimal effective concentration) for the compounds according to the invention are shown in the following table (in some cases as mean values obtained from individual determinations): […]

For Cc1cc(OCc2ncccc2F)c2nc(C)c(C(=O)NC(CCC(O)C(F)(F)F)C(C)(C)O)n2c1 (mixture of isomers) [Example 195, 8-[(3-fluoropyridin-2-yl)methoxy]-2,6-dimethyl-N-(7,7,7-trifluoro-2,6-dihydroxy-2-methylheptan-3-yl)imidazo[1,2-a]pyridine-3-carboxamide (stereoisomer mixture)], which “MEC (minimal effective concentration)” value is on record?
Its value is 10 µM.

Cc1nc2c(OCc3c(F)cccc3F)cccn2c1C(=O)NC1CCC(O)CC1 (racemic) [Example 42, (rac)-8-[(2,6-difluorobenzyl)oxy]-N-(trans-4-hydroxycyclohexyl)-2-methylimidazo[1,2-a]-pyridine-3-carboxamide] was tested. Which “MEC (minimal effective concentration)” value did it give?
The value was 1.0 µM.

CCC(CO)NC(=O)c1c(C)nc2c(OCC3CCCCC3)cccn12 (racemic) [Example 69, (rac)-8-(cyclohexylmethoxy)-N-(1-hydroxybutan-2-yl)-2-methylimidazo)[1,2-a]pyridine-3-carboxamide formate] was tested. Which “MEC (minimal effective concentration)” value did it give?
The value was 0.1 µM.

Which “MEC (minimal effective concentration)” value does the source give for C=CCC(CO)NC(=O)c1c(C)nc2c(OCC3CCCCC3)cccn12 (racemic) [Example 70, (rac)-8-(cyclohexylmethoxy)-N-(1-hydroxypent-4-en-2-yl)-2-methylimidazo[1,2-a]pyridine-3-carboxamide] here?
Its value is 0.1 µM.

For Cc1nc2c(OCC3CCCCC3)cccn2c1C(=O)N[C@H]1CCC[C@@H]1O (racemic) [Example 71, (rac)-8-(cyclohexylmethoxy)-N-[trans-2-hydroxycyclopentyl]-2-methylimidazo[1,2-a]-pyridine-3-carboxamide], which “MEC (minimal effective concentration)” value is on record?
The value was 0.1 µM.

Cc1nc2c(OCC3CCCCC3)cccn2c1C(=O)N[C@@H]1CCCC[C@H]1O (racemic) [Example 78, (rac)-8-(cyclohexylmethoxy)-N-[(trans)-2-hydroxycyclohexyl]-2-methylimidazo[1,2-a]-pyridine-3-carboxamide] was tested. Which “MEC (minimal effective concentration)” value did it give?
Its value is 0.3 µM.

Which “MEC (minimal effective concentration)” value does the source give for Cc1nc2c(OCc3c(F)cccc3F)cccn2c1C(=O)NC(CO)CC(F)(F)F (racemic) [Example 100, rac-8-[(2,6-Difluorobenzyl)oxy]-2-methyl-N-(4,4,4-trifluoro-hydroxybutan-2-yl)imidazo[1,2-a]-pyridine-3-carboxamide trifluoroacetate] here?
The value was 0.03 µM.

Cc1nc2c(OCc3c(F)cccc3F)cccn2c1C(=O)NC(CO)CCC(F)(F)F (racemic) [Example 101, rac-8-[(2,6-difluorobenzyl)oxy]-2-methyl-N-(5,5,5-trifluoro-1-hydroxypentan-2-yl)-imidazo[1,2-a]pyridine-3-carboxamide trifluoroacetate] was tested. Which “MEC (minimal effective concentration)” value did it give?
The value was 0.1 µM.

Cc1nc2c(OCc3c(F)cccc3F)cccn2c1C(=O)NC(CO)c1ccc(F)cc1 (racemic) [Example 103, rac-8-[(2,6-difluorobenzyl)oxy]-N-[1-(4-fluorophenyl)-2-hydroxyethyl]-2-methylimidazo[1,2-a]pyridine-3-carboxamide trifluoroacetate] was tested. Which “MEC (minimal effective concentration)” value did it give?
Its value is 0.1 µM.

How did the “MEC (minimal effective concentration)” value turn out when Cc1nc2c(OCc3c(F)cccc3F)cccn2c1C(=O)NCC(O)C(F)(F)F (racemic) [Example 106, rac-8-[(2,6-difluorobenzyl)oxy]-2-methyl-N-(3,3,3-trifluoro-2-hydroxypropyl)imidazo[1,2-a]pyridine-3-carboxamide trifluoroacetate] was run?
The value was 0.3 µM.

Which “MEC (minimal effective concentration)” value does the source give for Cc1nc2c(OCc3c(F)cccc3F)cccn2c1C(=O)NC(CO)C(F)(F)F (racemic) [Example 110, rac-8-[(2,6-Difluorobenzyl)oxy]-2-methyl-N-(1,1,1-trifluoro-3-hydroxypropan-2-yl)imidazo[1,2-a]pyridine-3-carboxamide] here?
Its value is 0.3 µM.

For Cc1nc2c(OCc3c(F)cccc3F)cccn2c1C(=O)NC(CO)CC(F)(F)F (racemic) [Example 113, rac-8-[(2,6-Difluorobenzyl)oxy]-2-methyl-N-(4,4,4-trifluoro-1-hydroxybutan-2-yl)imidazo[1,2-a]-pyridine-3-carboxamide], which “MEC (minimal effective concentration)” value is on record?
Its value is 0.03 µM.

Cc1nc2c(OCc3c(F)cccc3F)cccn2c1C(=O)NC(CO)CCCC(F)(F)F (racemic) [Example 114, rac-8-[(2,6-difluorobenzyl)oxy]-2-methyl-N-(6,6,6-trifluoro-1-hydroxyhexan-2-yl)imidazo[1,2-a]pyridine-3-carboxamide] was tested. Which “MEC (minimal effective concentration)” value did it give?
Its value is 0.03 µM.

For Cc1nc2c(OCc3c(F)cccc3F)cccn2c1C(=O)NC(CO)c1ccccn1 (racemic) [Example 119, rac-8-[(2,6-difluorobenzyl)oxy]-N-[2-hydroxy-1-(pyridin-2-yl)ethyl]-2-methylimidazo[1,2-a]-pyridine-3-carboxamide], which “MEC (minimal effective concentration)” value is on record?
The value was 0.3 µM.

Which “MEC (minimal effective concentration)” value does the source give for Cc1nc2c(OCc3c(F)cccc3F)cccn2c1C(=O)NC(CO)c1ccc(S(C)(=O)=O)cc1 (racemic) [Example 120, rac-8-[(2,6-difluorobenzyl)oxy]-N-{2-hydroxy-1-[4-(methylsulphonyl)phenyl]ethyl}-2-methylimidazo[1,2-a]pyridine-3-carboxamide] here?
Its value is 1.0 µM.

With Cc1nc2c(OCc3c(F)cccc3F)cccn2c1C(=O)NC(CO)c1cccnc1 (racemic) [Example 124, rac-8-[(2,6-Difluorobenzyl)oxy]-N-[2-hydroxy-1-(pyridin-3-yl)ethyl]-2-methylimidazo[1,2-a]-pyridine-3-carboxamide] as the compound, how does the “MEC (minimal effective concentration)” value read?
The value was 0.3 µM.

Which “MEC (minimal effective concentration)” value does the source give for Cc1nc2c(OCc3c(F)cccc3F)cccn2c1C(=O)NC(CCC(F)(F)F)C(C)(C)O (racemic) [Example 149, rac-8-[(2,6-difluorobenzyl)oxy]-2-methyl-N-(6,6,6-trifluoro-2-hydroxy-2-methylhexan-3-yl)imidazo[1,2-a]pyridine-3-carboxamide] here?
The value was 0.1 µM.

With Cc1nc2c(OCc3c(F)cccc3F)cccn2c1C(=O)NC(CCCC(F)(F)F)C(C)(C)O (racemic) [Example 150, rac-8-[(2,6-difluorobenzyl)oxy]-2-methyl-N-(7,7,7-trifluoro-2-hydroxy-2-methylheptan-3-yl)imidazo[1,2-a]pyridine-3-carboxamide] as the compound, how does the “MEC (minimal effective concentration)” value read?
Its value is 0.03 µM.

How did the “MEC (minimal effective concentration)” value turn out when Cc1nc2c(OCc3c(F)cccc3F)cccn2c1C(=O)NC(c1ccc(Cl)cc1)C(C)(C)O (racemic) [Example 151, rac-N-[1-(4-chlorophenyl)-2-hydroxy-2-methylpropyl]-8-[(2,6-difluorobenzyl)oxy]-2-methylimidazo[1,2-a]pyridine-3-carboxamide] was run?
Its value is 0.3 µM.

With Cc1nc2c(OCc3c(F)cccc3F)cccn2c1C(=O)NC(c1ccc(F)cc1)C(C)(C)O (racemic) [Example 152, rac-8-[(2,6-difluorobenzyl)oxy]-N-[1-(4-fluorophenyl)-2-hydroxy-2-methylpropyl]-2-methylimidazo[1,2-a]pyridine-3-carboxamide] as the compound, how does the “MEC (minimal effective concentration)” value read?
Its value is 0.3 µM.

For CCOCC(CO)NC(=O)c1c(C)nc2c(OCc3c(F)cccc3F)cccn12 (racemic) [Example 160, rac-8-[(2,6-Difluorobenzyl)oxy]-N-(1-ethoxy-3-hydroxypropan-2-yl)-2-methylimidazo[1,2-a]-pyridine-3-carboxamide], which “MEC (minimal effective concentration)” value is on record?
The value was 0.3 µM.

same assay, conditions: in some cases mean values obtained from individual determinations, trifluoroacetate

For Cc1nc2c(OCc3c(F)cccc3F)cccn2c1C(=O)NC(CO)CCCC(F)(F)F (racemic) [Example 102, rac-8-[(2,6-difluorobenzyl)oxy]-2-methyl-N-(6,6,6-trifluoro-1-hydroxyhexan-2-yl)-imidazo[1,2-a]pyridine-3-carboxamide trifluoroacetate], which “MEC (minimal effective concentration)” value is on record?
The value was 0.1 µM.
